ChEMBL document CHEMBL1201862, “PubChem BioAssay data set” (2004)
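Assay format: 96-well plates, 48-hour exposure. GI50: concentration for 50% inhibition of growth.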 Calls of active or inactive are those of the source. Cut-off read from the data, not from the text of the source: active = GI50 up to about 1.1 µM and inactive = higher.

Columns and labels:
Test in all cases: NCI tumour cell line growth inhibition, 48 h
[1] = test system: Hs-578T
[2] = test system: SNB-19
[3] = test system: NCI-H226
[4] = test system: SF-539
[5] = test system: TK-10
[6] = test system: SR
[7] = test system: SN12C
[8] = test system: NCI-H23
[9] = test system: MDA-N
[10] = test system: SNB-75
[11] = test system: NCI/ADR-RES
[12] = test system: T47D
[13] = test system: LOX IMVI
[14] = test system: HT-29
[15] = test system: K562
[16] = test system: SF-268
[17] = test system: CAKI-1
[18] = test system: 786-0
[19] = test system: SK-MEL-5
[20] = test system: KM12
[21] = test system: A498
[22] = test system: MCF7
[23] = test system: SF-295
[24] = test system: Malme-3M
[25] = test system: HOP-92
[26] = test system: A549
[27] = test system: OVCAR-8
[28] = test system: UACC-257
[29] = test system: OVCAR-5
[30] = test system: SK-OV-3
[31] = test system: MOLT-4
[32] = test system: CCRF-CEM
[33] = test system: OVCAR-3
[34] = test system: M14
[35] = test system: IGROV-1
[36] = test system: HCT-116
[37] = test system: HCT-15
[38] = test system: COLO 205
[39] = test system: RXF 393
[40] = test system: NCI-H460
[41] = test system: ACHN
[42] = test system: OVCAR-4
[43] = test system: HL-60
[44] = test system: SK-MEL-2
[45] = test system: HCC 2998
[46] = test system: PC-3
[47] = test system: U-251
[48] = test system: EKVX
[49] = test system: MDA-MB-435
[50] = test system: UACC-62
[51] = test system: NCI-H522
[52] = test system: MDA-MB-231
[53] = test system: UO-31
[54] = test system: SK-MEL-28
[55] = test system: DU-145
[56] = test system: HOP-62
[57] = test system: SW-620

In the case of `NC1CC2C3CCC2C1C3=O` (configuration not stated), the GI50 [1] is reported as > 100 µM (inactive), the GI50 [2] is reported as > 100 µM (inactive) and the GI50 [3] is reported as > 100 µM (inactive). The GI50 [4] was > 100 µM (inactive), the GI50 [5] was > 100 µM (inactive) and the GI50 [6] was > 100 µM (inactive). For the same molecule, the GI50 [7] was > 100 µM (inactive), the GI50 [8] was > 100 µM (inactive) and the GI50 [9] was > 100 µM (inactive). The GI50 [10] was 4.76 µM (inactive), the GI50 [11] was > 100 µM (inactive) and the GI50 [12] was > 100 µM (inactive). The GI50 [13] was > 100 µM (inactive), the GI50 [14] was > 100 µM (inactive) and the GI50 [15] was > 100 µM (inactive). The GI50 [16] was > 100 µM (inactive), the GI50 [17] was > 100 µM (inactive) and the GI50 [18] was > 100 µM (inactive). For the same molecule, the GI50 [19] was > 100 µM (inactive), the GI50 [20] was > 100 µM (inactive) and the GI50 [21] was > 100 µM (inactive). The GI50 [22] was > 100 µM (inactive), the GI50 [23] was > 100 µM (inactive) and the GI50 [24] was > 100 µM (inactive). The GI50 [25] was > 100 µM (inactive), the GI50 [26] was > 100 µM (inactive) and the GI50 [27] was > 100 µM (inactive). For the same molecule, the GI50 [28] was > 100 µM (inactive), the GI50 [29] was > 100 µM (inactive) and the GI50 [30] was > 100 µM (inactive). The GI50 [31] was > 100 µM (inactive), the GI50 [32] was > 100 µM (inactive) and the GI50 [33] was > 100 µM (inactive). The GI50 [34] was > 100 µM (inactive), the GI50 [35] was > 100 µM (inactive) and the GI50 [36] was > 100 µM (inactive). For the same molecule, the GI50 [37] was over 100 µM, the GI50 [38] was > 100 µM (inactive) and the GI50 [39] was > 100 µM (inactive). The GI50 [40] was > 100 µM (inactive), the GI50 [41] was > 100 µM (inactive) and the GI50 [42] was > 100 µM (inactive). For the same molecule, the GI50 [43] was > 100 µM (inactive), the GI50 [44] was > 100 µM (inactive) and the GI50 [45] was > 100 µM (inactive). The GI50 [46] was > 100 µM (inactive), the GI50 [47] was > 100 µM (inactive) and the GI50 [48] was > 100 µM (inactive). For the same molecule, the GI50 [49] was > 100 µM (inactive), the GI50 [50] was > 100 µM (inactive) and the GI50 [51] was > 100 µM (inactive). For the same molecule, the GI50 [52] was > 100 µM (inactive), the GI50 [53] was > 100 µM (inactive) and the GI50 [54] was > 100 µM (inactive). The GI50 [55] was > 100 µM (inactive), the GI50 [56] was > 100 µM (inactive) and the GI50 [57] was > 100 µM (inactive).
